Several values for one entry are separate records, joined by “and”; a condition that tells them apart may be missing. Identical values can stand only once. Like-named read-outs stand apart in the source and are kept apart here.
How the values were obtained:
[1] = tested on: biosynthesis of hepatic cholesterol (hepatic epoxysqualene cyclase); assay: Influence on the biosynthesis of hepatic cholesterol in vivo: incorporation of radioactivity in the C27 sterols; conditions: oral (gavage), male OF1 mice, relative to control (vehicle) group, 14C-mevalonolactone at 1 h, sacrifice at 2 h
Protocol: The influence of the molecules on hepatic cholesterogenesis in vivo is tested on male OF1 mice. The animals are conditioned in reverse cycle two weeks before administration of the product.
At T=0 on the day of the experiment, the animals (3 to 6 mice/group) receive by oral administration (gavage) a suspension of the test product in the vehicle (3% gum arabic in water).
At T=1 h, the radioactive precursor (R,S-2-^14 C-mevalonolactone) in a 0.9% aqueous solution of NaCl is injected intraperitoneally [2.5 or 5 μCi/mouse (i.e. 9.25×10^4 Bq or 1.85×10^5 Bq respectively)].
At T=2 h, the animals are sacrificed by dislocation of the cervix; the livers are removed, rinsed, weighed and frozen in liquid nitrogen before being stored at -20° C.
During the conditioning period and on the day of the experiment, the animals have free access to food and drinking water.
The administration of the test product and the injection of the radioactive precursor take place in the middle of the dark period.
After thawing, the whole liver (or part of the liver) is homogenized in water at 0°-4° C. An aliquot of the homogenate is then saponified in alcoholic potassium hydroxide for 90 minutes at 80° C. The unsaponifiable lipids are then extracted with petroleum ether. The solvent is evaporated off to dryness under a stream of nitrogen and the dry residue is redissolved in a chloroform/methanol mixture (2/1). The products contained in the extract are then separated by chromatography on a thin layer of silica after migration in the system hexane/ethyl acetate (80/20).
The deposition of a standard mixture containing non-radioactive cholesterol, lanosterol, monoepoxysqualene, diepoxysqualene and squalene, together with ^14 C-cholesterol, makes it possible to determine the Rf of the compounds which serve as a reference for analysis of the radioactive profile of the unsaponifiable lipids.
The distribution of the radioactivity is analyzed with an automatic linear analyzer. The relative percentage of radioactivity in the C^27 -sterol peak of the control (vehicle) group represents 100% incorporation. Calculation of the influence is based on the ratio of the percentage of radioactivity in the C^27 -sterol peak of the treated group to that of the control group.

[2] = biological target: T1, epoxysqualene cyclase of the hepatic microsomes (Rattus norvegicus, UniProt P48450); assay: Epoxysqualene cyclase inhibition: lanosterol formed from R,S-2,3-oxidosqualene by rat hepatic microsomes; type: biochemical, male Wistar rats
T1 construct: Rat hepatic microsomes are used as the enzyme source; from tissue; host or cells: liver microsomes of male Wistar rats
T1 sequence (P48450 1-733): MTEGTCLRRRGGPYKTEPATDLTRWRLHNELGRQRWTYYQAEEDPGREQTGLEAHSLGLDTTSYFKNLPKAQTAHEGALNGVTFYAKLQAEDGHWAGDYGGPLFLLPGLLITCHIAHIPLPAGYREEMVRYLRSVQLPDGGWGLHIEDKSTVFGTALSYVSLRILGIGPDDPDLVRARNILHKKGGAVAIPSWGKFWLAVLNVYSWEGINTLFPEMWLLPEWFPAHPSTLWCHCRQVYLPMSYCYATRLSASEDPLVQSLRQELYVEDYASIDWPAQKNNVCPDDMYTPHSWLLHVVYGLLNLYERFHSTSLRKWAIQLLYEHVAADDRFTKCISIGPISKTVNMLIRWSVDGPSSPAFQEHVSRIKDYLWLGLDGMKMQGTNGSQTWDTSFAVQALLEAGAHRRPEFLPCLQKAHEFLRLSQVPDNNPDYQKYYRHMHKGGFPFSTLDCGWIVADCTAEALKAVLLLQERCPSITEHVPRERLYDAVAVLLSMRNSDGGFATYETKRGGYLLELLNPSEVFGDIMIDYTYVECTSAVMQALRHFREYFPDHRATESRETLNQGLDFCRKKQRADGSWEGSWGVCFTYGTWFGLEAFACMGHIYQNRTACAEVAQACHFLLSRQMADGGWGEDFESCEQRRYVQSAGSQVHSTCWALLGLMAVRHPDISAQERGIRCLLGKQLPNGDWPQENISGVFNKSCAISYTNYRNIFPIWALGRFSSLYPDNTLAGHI
Protocol: The method consists in measuring the lanosterol formed from the R,S-2,3-oxidosqualene by the microsomal enzyme. The enzyme is prepared according to the method described by Ness G. C. (Ness G. C. et al., Biochem. J. (1986), 233,167-172).
Method of Measuring the Epoxysqualene Cyclase Activity
Rat hepatic microsomes are used as the enzyme source. The method consists in measuring the lanosterol formed from the R,S-2,3-oxidosqualene. The R,S-2,3-oxidosqualene, the test products and Tween®80, in the form of organic solutions (2-propanone or sulfinylbismethane) (25 μl ), are placed in test tubes and 400 μl of potassium phosphate buffer (0.1M, pH=7.4) are then added. The reaction is initiated by the addition of 100 μl of microsomes. For a final reaction volume of 525 μl , the mixture contains 150 μM of R,S-2,3-oxidosqualene, 0.1% of Tween®80 (to solubilize the R,S-2,3-oxidosqualene) and 250 μg of microsomal proteins. The reaction time is 60 minutes at 37° C. The reaction is stopped by the addition of 300 μl of methanolic potassium hydroxide (7%) and 20 μg of stigmasterol as an internal standard. After saponification at 80° C. for 30 minutes and stirring with a rotary stirrer, the sterols are extracted with 2 ml of hexane.
The lanosterol formed is separated from the R,S-2,3-oxidosqualene, the membrane cholesterol and the stigmasterol by gas chromatography after conversion to trimethylsilyl ethers. The derivatization of the sterols is carried out at 60° C. for 30 minutes after the addition of 25 μl of pyridine and 75 μl of the trimethylsilyl ester of 2,2,2-trifluoro-N-trimethylsilylethanimidic acid containing 1% of trimethylchlorosilane ethers.
After evaporation, the trimethylsilyl ethers are redissolved in 100 μl of hexane. An aliquot of this solution (2 μl) is chromatographed in the gas phase on an OV1 capillary column (0.32 mm, 25 m) under the following conditions: injector temperature=270° C., oven temperature=260° C., detector temperature=300° C., the carrier gas being nitrogen at a pressure of 7.10^4 Pa.
The potency of the molecules tested is expressed as the percentage inhibition of the amount of lanosterol formed for a concentration of 25.10^-6 mol of test product per liter. The results obtained with a number of compounds according to the invention are collated in Table II.

[3] = 25.10^-6 mol of test product per liter, 60 minutes at 37° C., pH=7.4, rat hepatic microsomes

Percentage inhibition of the amount of lanosterol formed [2, 3] | SMILES | further results
65% | CCCCCCCCCCCCN1CC=C2C(C)(C)[C@@H](NC)CC[C@]2(C)C1 (relative stereo) [Example 12, N-Methyl-1,2,3,5,6,7,8,8a-octahydro-2-dodecyl-5,5,8a-trimethyl-(6β,8aβ)-6-isoquinolineamine ethanedioate] | 
29% | CCCCCCCCCCCCN1CC=C2C(C)(C)[C@@H](N)CC[C@]2(C)C1 (relative stereo) [Example 14, 1,2,3,5,6,7,8,8a-Octahydro-2-dodecyl-5,5,8a-trimethyl-(6β,8aβ)-6-isoquinolineamine E-2-butenedioate] | 
100% | CCCCCCCCCCCCN1CC=C2C(C)(C)[C@@H](N(C)C)CC[C@]2(C)C1 (relative stereo) [Example 17, N,N-Dimethyl-1,2,3,5,6,7,8,8a-octahydro-2-dodecyl-5,5,8a-trimethyl-(6β,8aβ)-6-isoquinolineamine (E)-2-butenedioate] | 
66% | CCCCCCCCCCCCN1CC=C2C(C)(C)[C@H](N(C)C)CC[C@]2(C)C1 (relative stereo) [Example 18, N,N-Dimethyl-1,2,3,5,6,7,8,8a-octahydro-2-dodecyl-5,5,8a-trimethyl-(6α,8aβ)-6-isoquinolineamine ethanedioate] | 
98% | CN(C)[C@H]1CC[C@]2(C)CN(CC=Cc3ccccc3)CC=C2C1(C)C (relative stereo) [Example 23, N,N-Dimethyl-1,2,3,5,6,7,8,8a-octahydro-2-(3-phenyl-2-propen-1-yl)-5,5,8a-trimethyl-(6β,8aβ)-6-isoquinolineamine 4-methylbenzenesulfonate] | 
92% | CN(C)[C@H]1CC[C@]2(C)CN(CC=C(c3ccccc3)c3ccccc3)CC=C2C1(C)C (relative stereo) [Example 24, N,N-Dimethyl-1,2,3,5,6,7,8,8a-octahydro-2-(3,3-diphenyl-2-propen-1-yl)-5,5,8a-trimethyl-(6β,8aβ)-6isoquinolineamine ethanedioate] | 
62% | CC1(C)C2=CCN(CC(O)CO)C[C@@]2(C)CC[C@@H]1NC(=O)C(F)(F)F (stereo partly drawn) [Example 6, N-Trifluoroacetyl-1,2,3,5,6,7,8,8a-octahydro-2-[1-(2,3-dihydroxypropyl)]-5,5,8a-trimethyl-(6β,8aβ)-6-isoquinolineamine E-2-butenedioate] | Percentage influence on the incorporation of radioactivity in the C27 sterols ([1]; 100 mg base/kg): -74% and -78%
64% | CN(C)[C@H]1CC[C@]2(C)CN(CC(O)CO)CC=C2C1(C)C (stereo partly drawn) [Example 22, N,N-Dimethyl-1,2,3,5,6,7,8,8a-octahydro-2-[1-(2,3-dihydroxypropyl)]-5,5,8a-trimethyl-(6β,8aβ)-6-isoquinolineamine] | 
98% | CC(Cc1ccc(C(C)C)cc1)CN1CC=C2C(C)(C)[C@@H](N(C)C)CC[C@]2(C)C1 (stereo partly drawn) [Example 25, N,N-Dimethyl-1,2,3,5,6,7,8,8a-octahydro-2-[1-[2-methyl-3-[4-(1-methylethyl)phenyl]propyl]]-5,5,8a-trimethyl-(6β,8aβ)-6-isoquinolineamine (E)-2-butenedioate] | 

The remaining lines, values behind:

SMILES | Percentage inhibition of the amount of lanosterol formed [2, 3] | further results
C=CCN1CC=C2C(C)(C)[C@@H](NC(=O)C(F)(F)F)CC[C@]2(C)C1 (relative stereo) [Example 1, N-Trifluoroacetyl-1,2,3,5,6,7,8,8a-octahydro-2-(2-propen-1-yl)-5,5,8a-trimethyl-(6β,8aβ)-6-isoquinolineamine] |  | Percentage influence on the incorporation of radioactivity in the C27 sterols ([1]; 50 mg base/kg): -37%
C=CCN1CC=C2C(C)(C)[C@@H](NC)CC[C@]2(C)C1 (relative stereo) [Example 13, N-Methyl-1,2,3,5,6,7,8,8a-octahydro-2-(2-propen-1-yl)-5,5,8a-trimethyl-(6β,8aβ)-6-isoquinolineamine ethanedioate] |  | Percentage inhibition of the amount of lanosterol formed [2]: 63%
C=CCN1CC=C2C(C)(C)[C@@H](NC(C)=O)CC[C@]2(C)C1 (relative stereo) [Example 16, N-Acetyl-1,2,3,5,6,7,8,8a-octahydro-2-(2-propen-1-yl)-5,5,8a-trimethyl-(6β,8aβ)-6-isoquinolineamine 4-methylbenzenesulfonate] |  | Percentage influence on the incorporation of radioactivity in the C27 sterols ([1]; 50 mg base/kg): -14%
C=CCN1CC=C2C(C)(C)[C@@H](N(C)C)CC[C@]2(C)C1 (relative stereo) [Example 20, N,N-Dimethyl-1,2,3,5,6,7,8,8a-octahydro-2-(2-propen-1-yl)-5,5,8a-trimethyl-(6β,8aβ)-6-isoquinolineamine (E)-2-butenedioate] | 89% | Percentage influence on the incorporation of radioactivity in the C27 sterols ([1]; 50 mg base/kg): -21%
CCCN1CC=C2C(C)(C)[C@@H](N(C)C)CC[C@]2(C)C1 (relative stereo) [Example 21, N,N-Dimethyl-1,2,3,5,6,7,8,8a-octahydro-2-propyl-5,5,8a-trimethyl-(6β,8aβ)-6-isoquinolineamine ethanedioate] | 100% | 
CC1(C)C2=CCN(CC3CO3)C[C@@]2(C)CC[C@@H]1NC(=O)C(F)(F)F (stereo partly drawn) [Example 5, N-Trifluoroacetyl-1,2,3,5,6,7,8,8a-octahydro-2-[1-(2,3-epoxypropyl)]-5,5,8a-trimethyl-(6β,8aβ)-6-isoquinolineamine] |  | Percentage influence on the incorporation of radioactivity in the C27 sterols ([1]; 50 mg base/kg): -32%

Source: patent US5580881A, “1,2,3,5,6,7,8,8a-Octahydro-5,5,8a-trimethyl- (8aβ)-6-isoquinolineamine derivatives, preparation method therefor and therapeutical use thereof” (Fournier Industrie Et Sante, priority 1992, dated 1996)
